Data reported in the NIST ThermoML archive (doi:10.1016/j.fluid.2011.10.009).
Numbers after ± are expanded uncertainties.

Conditions: Liquid

With `CCCCCCCCC` [nonane] the “vapor or sublimation pressure” value (423.8 K, Ebulliometric method (Recirculating still)) was 101.3 ± 1 kPa.

With `Cc1ccc(C)cc1` [1,4-dimethylbenzene] the “vapor or sublimation pressure” value (411.4 K, Ebulliometric method (Recirculating still)) was 101.3 ± 1 kPa.

With `Cc1ccccc1` [toluene] the “vapor or sublimation pressure” value (383.4 K, Closed cell (Static) method) was 101.3 ± 1 kPa and the “vapor or sublimation pressure” value (383.8 K, Closed cell (Static) method) was 101.3 ± 1 kPa.

For `C1CCCCC1` [cyclohexane], the “vapor or sublimation pressure” value (353.7 K, Ebulliometric method (Recirculating still)) was 101.3 ± 1 kPa.

With `c1ccccc1` [benzene] the “vapor or sublimation pressure” value (353.3 K, Closed cell (Static) method) was 101.3 ± 1 kPa.

For `Cc1cccc(C)c1` [1,3-dimethylbenzene], the “vapor or sublimation pressure” value (412 K, Ebulliometric method (Recirculating still)) was 101.3 ± 1 kPa.
